Test results from ChEMBL document CHEMBL1201861, “Genomics of Drug Sensitity in Cancer screening data, Wellcome Trust Sanger Institute”.

Assays:
Test in all cases: cells
TGW = type: functional, cell-based, Homo sapiens; conditions: Homo sapiens, TGW;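 also: growth inhibition of human TGW cells, read out with a cell viability assay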
Description: SANGER: Inhibition of human TGW cell growth in a cell viability assay.

SK-LMS-1 = type: functional, cell-based, Homo sapiens; conditions: Homo sapiens, SK-LMS-1;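 also: growth inhibition of human SK-LMS-1 cells, read out with a cell viability assay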
Description: SANGER: Inhibition of human SK-LMS-1 cell growth in a cell viability assay.

LU-139 = type: functional, cell-based, Homo sapiens; conditions: Homo sapiens, LU-139
Description: SANGER: Inhibition of human LU-139 cell growth in a cell viability assay.

KGN = type: functional, cell-based, Homo sapiens; conditions: Homo sapiens, KGN;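 also: growth inhibition of KGN cells, read out with a cell viability assay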
Description: SANGER: Inhibition of human KGN cell growth in a cell viability assay.

CCRF-CEM = type: functional, cell-based, Homo sapiens; conditions: Homo sapiens, CCRF-CEM;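 also: inhibition of CCRF-CEM cell growth, measured by a cell viability assay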
Description: SANGER: Inhibition of human CCRF-CEM cell growth in a cell viability assay.

RPMI-8226 = type: functional, cell-based, Homo sapiens; conditions: Homo sapiens, RPMI-8226
Description: SANGER: Inhibition of human RPMI-8226 cell growth in a cell viability assay.

SK-N-FI = type: functional, cell-based, Homo sapiens; conditions: Homo sapiens, SK-N-FI;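 also: cell viability assay measuring growth inhibition of human SK-N-FI cells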
Description: SANGER: Inhibition of human SK-N-FI cell growth in a cell viability assay.

BE-13 = type: functional, cell-based, Homo sapiens; conditions: Homo sapiens, BE-13;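 also: growth inhibition of human BE-13 cells, measured with a cell viability assay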
Description: SANGER: Inhibition of human BE-13 cell growth in a cell viability assay.

MS-1 = type: functional, cell-based, Homo sapiens; conditions: Homo sapiens, MS-1
Description: SANGER: Inhibition of human MS-1 cell growth in a cell viability assay.

NEC8 = type: functional, cell-based, Homo sapiens; conditions: Homo sapiens, NEC8;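 also: growth inhibition of human NEC8 cells, read out by a cell viability assay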
Description: SANGER: Inhibition of human NEC8 cell growth in a cell viability assay.

COLO-320-HSR = type: functional, cell-based, Homo sapiens; conditions: Homo sapiens, COLO-320-HSR;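 also: growth inhibition of COLO-320-HSR cells, determined with a cell viability assay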
Description: SANGER: Inhibition of human COLO-320-HSR cell growth in a cell viability assay.

SF-126 = type: functional, cell-based, Homo sapiens; conditions: Homo sapiens, SF-126;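 also: growth inhibition of human SF126 cells, read out with a cell viability assay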
Description: SANGER: Inhibition of human SF126 cell growth in a cell viability assay.

HCE-4 = type: functional, cell-based; conditions: Homo sapiens;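 also: cell viability assay measuring inhibition of growth in the human HCE-4 cell line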
Description: SANGER: Inhibition of human HCE-4 cell growth in a cell viability assay.

SNU-C2B = type: functional, cell-based; conditions: Homo sapiens;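 also: cell viability readout used to measure compound-driven suppression of SNU-C2B cell proliferation, IC50 marking half-maximal growth inhibition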
Description: SANGER: Inhibition of human SNU-C2B cell growth in a cell viability assay.

DSH1 = type: functional, cell-based; conditions: Homo sapiens;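 also: growth inhibition of human DSH1 cells, measured with a cell viability readout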
Description: SANGER: Inhibition of human DSH1 cell growth in a cell viability assay.

RH-1 = type: functional, cell-based, Homo sapiens; conditions: Homo sapiens, RH-1;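 also: growth inhibition of human RH-1 cells, read out with a cell viability assay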
Description: SANGER: Inhibition of human RH-1 cell growth in a cell viability assay.

NCI-H1355 = type: functional, cell-based, Homo sapiens; conditions: Homo sapiens, NCI-H1355;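 also: growth inhibition of human NCI-H1355 cells, read out by a cell viability assay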
Description: SANGER: Inhibition of human NCI-H1355 cell growth in a cell viability assay.

NCI-H69 = type: functional, cell-based, Homo sapiens; conditions: Homo sapiens, NCI-H69;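 also: growth inhibition of the cell line, read out with a cell viability assay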
Description: SANGER: Inhibition of human NCI-H69 cell growth in a cell viability assay.

JAR = type: functional, cell-based, Homo sapiens; conditions: Homo sapiens, JAR;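 also: growth inhibition of human JAR cells determined with a cell viability assay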
Description: SANGER: Inhibition of human JAR cell growth in a cell viability assay.

AM-38 = type: functional, cell-based, Homo sapiens; conditions: Homo sapiens, AM-38;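 also: growth inhibition of AM-38 cells of human origin, read out by a cell viability assay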
Description: SANGER: Inhibition of human AM-38 cell growth in a cell viability assay.

NB69 = type: functional, cell-based, Homo sapiens; conditions: Homo sapiens, NB69;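 also: growth inhibition of NB69 cells, determined by a cell viability assay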
Description: SANGER: Inhibition of human NB69 cell growth in a cell viability assay.

NOMO-1 = type: functional, cell-based, Homo sapiens; conditions: Homo sapiens, NOMO-1;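 also: growth inhibition of human NOMO-1 cells measured by a cell viability assay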
Description: SANGER: Inhibition of human NOMO-1 cell growth in a cell viability assay.

8-MG-BA = type: functional, cell-based, Homo sapiens; conditions: Homo sapiens, 8-MG-BA;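 also: growth inhibition of 8-MG-BA cells, read out with a cell viability assay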
Description: SANGER: Inhibition of human 8-MG-BA cell growth in a cell viability assay.

A3-KAW = type: functional, cell-based, Homo sapiens; conditions: Homo sapiens, A3-KAW;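 also: growth inhibition of human A3-KAW cells, read out with a cell viability assay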
Description: SANGER: Inhibition of human A3-KAW cell growth in a cell viability assay.

D283 Med = type: functional, cell-based, Homo sapiens; conditions: Homo sapiens, D283 Med
Description: SANGER: Inhibition of human D-283MED cell growth in a cell viability assay.

NB13 = type: functional, cell-based, Homo sapiens; conditions: Homo sapiens, NB13;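 also: cell viability readout measuring growth inhibition of human NB13 cells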
Description: SANGER: Inhibition of human NB13 cell growth in a cell viability assay.

BT-474 = type: functional, cell-based, Homo sapiens; conditions: Homo sapiens, BT-474
Description: SANGER: Inhibition of human BT-474 cell growth in a cell viability assay.

SK-N-DZ = type: functional, cell-based, Homo sapiens; conditions: Homo sapiens, SK-N-DZ; read-out: IC50;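 also: growth inhibition of the cancer cell line, read out through a viability assay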
Description: SANGER: Inhibition of human SK-N-DZ cell growth in a cell viability assay.

TE-8 = type: functional, cell-based, Homo sapiens; conditions: Homo sapiens, TE-8;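 also: growth inhibition of TE-8 cells, measured with a cell viability readout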
Description: SANGER: Inhibition of human TE-8 cell growth in a cell viability assay.

SHP77 = type: functional, cell-based, Homo sapiens, SHP-77; conditions: Homo sapiens, SHP77;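 also: growth inhibition of human SHP-77 cells measured by a cell viability assay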
Description: SANGER: Inhibition of human SHP-77 cell growth in a cell viability assay.

D-247MG = type: functional, cell-based; conditions: Homo sapiens
Description: SANGER: Inhibition of human D-247MG cell growth in a cell viability assay.

LS-1034 = type: functional, cell-based, Homo sapiens; conditions: Homo sapiens, LS-1034
Description: SANGER: Inhibition of human LS-1034 cell growth in a cell viability assay.

SK-MEL-1 = type: functional, cell-based, Homo sapiens; conditions: Homo sapiens, SK-MEL-1;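 also: growth inhibition of human SK-MEL-1 cells, read out by a cell viability assay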
Description: SANGER: Inhibition of human SK-MEL-1 cell growth in a cell viability assay.

MV4-11 = type: functional, cell-based, Homo sapiens, MV-4-11; conditions: Homo sapiens, MV4-11;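 also: cell viability readout measuring growth inhibition of human MV-4-11 cells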
Description: SANGER: Inhibition of human MV-4-11 cell growth in a cell viability assay.

JVM-3 = type: functional, cell-based, Homo sapiens; conditions: Homo sapiens, JVM-3;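 also: growth inhibition of human JVM-3 cells, read out with a cell viability assay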
Description: SANGER: Inhibition of human JVM-3 cell growth in a cell viability assay.

SW982 = type: functional, cell-based; conditions: Homo sapiens;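 also: growth inhibition of SW982 cells, read out with a cell viability assay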
Description: SANGER: Inhibition of human SW982 cell growth in a cell viability assay.

RPMI-8866 = type: functional, cell-based, Homo sapiens; conditions: Homo sapiens, RPMI-8866
Description: SANGER: Inhibition of human RPMI-8866 cell growth in a cell viability assay.

NTERA-2-cl-D1 = type: functional, cell-based, Homo sapiens; conditions: Homo sapiens, NTERA-2-cl-D1;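 also: inhibition of cell growth, measured with a cell viability assay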
Description: SANGER: Inhibition of human NTERA-S-cl-D1 cell growth in a cell viability assay.

TE-9 = type: functional, cell-based, Homo sapiens; conditions: Homo sapiens, TE-9;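 also: cell growth inhibition, measured with a cell viability readout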
Description: SANGER: Inhibition of human TE-9 cell growth in a cell viability assay.

NCI-H1648 = type: functional, cell-based, Homo sapiens; conditions: Homo sapiens, NCI-H1648;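 also: cell viability assay measuring inhibition of NCI-H1648 cell growth, from the Sanger screening data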
Description: SANGER: Inhibition of human NCI-H1648 cell growth in a cell viability assay.

A388 = type: functional, cell-based; conditions: Homo sapiens;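 also: growth inhibition of human A388 cells, read out with a cell viability assay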
Description: SANGER: Inhibition of human A388 cell growth in a cell viability assay.

HEL = type: functional, cell-based, Homo sapiens; conditions: Homo sapiens, HEL;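 also: growth inhibition of HEL cells, read out with a cell viability assay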
Description: SANGER: Inhibition of human HEL cell growth in a cell viability assay.

ES1 = type: functional, cell-based, Homo sapiens; conditions: Homo sapiens, ES1;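 also: growth inhibition of ES1 cells, read out with a cell viability assay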
Description: SANGER: Inhibition of human ES1 cell growth in a cell viability assay.

SW 962 = type: functional, cell-based, Homo sapiens; conditions: Homo sapiens, SW 962;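 also: growth inhibition of human SW962 cells, read out by a cell viability assay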
Description: SANGER: Inhibition of human SW962 cell growth in a cell viability assay.

HOP-62 = type: functional, cell-based, Homo sapiens; conditions: Homo sapiens, HOP-62;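 also: cell growth inhibition determined with a viability assay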
Description: SANGER: Inhibition of human HOP-62 cell growth in a cell viability assay.

OCUB-M = type: functional, cell-based; conditions: Homo sapiens;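 also: growth inhibition of the cancer cell line, read out through a cell viability assay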
Description: SANGER: Inhibition of human OCUB-M cell growth in a cell viability assay.

NMC-G1 = type: functional, cell-based, Homo sapiens; conditions: Homo sapiens, NMC-G1;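 also: growth inhibition of the NMC-G1 cell line, measured with a cell viability read-out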
Description: SANGER: Inhibition of human NMC-G1 cell growth in a cell viability assay.

MZ1-PC = type: functional, cell-based, Homo sapiens; conditions: Homo sapiens, MZ1-PC;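 also: cell viability assay measuring growth inhibition of human MZ1-PC cells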
Description: SANGER: Inhibition of human MZ1-PC cell growth in a cell viability assay.

EOL1 = type: functional, cell-based, Homo sapiens; conditions: Homo sapiens, EOL1;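 also: growth inhibition of EoL-1 cells, read out by a cell viability assay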
Description: SANGER: Inhibition of human EoL-1-cell cell growth in a cell viability assay.

LB2518-MEL = type: functional, cell-based; conditions: Homo sapiens;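 also: growth inhibition of human LB2518-MEL cells, measured with a cell viability assay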
Description: SANGER: Inhibition of human LB2518-MEL cell growth in a cell viability assay.

NCI-H1299 = type: functional, cell-based; conditions: Homo sapiens;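 also: growth inhibition of human NCI-H1299 cells, read out by a cell viability assay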
Description: SANGER: Inhibition of human NCI-H1299 cell growth in a cell viability assay.

Q: What does the source list for NC(=O)c1cccc(-c2cc(Nc3ccc(OC(F)(F)F)cc3)ncn2)c1?
A: IC50 (TGW): > 1280 nM; IC50 (SK-LMS-1): > 1280 nM; IC50 (LU-139): > 1280 nM; IC50 (KGN): > 1280 nM; IC50 (CCRF-CEM): > 1280 nM; IC50 (RPMI-8226): > 1280 nM; IC50 (SK-N-FI): > 1280 nM; IC50 (BE-13): > 1280 nM; IC50 (MS-1): > 1280 nM; IC50 (NEC8): > 1280 nM; IC50 (COLO-320-HSR): > 1280 nM; IC50 (SF-126): > 1280 nM; IC50 (HCE-4): > 1280 nM; IC50 (SNU-C2B): > 1280 nM; IC50 (DSH1): > 1280 nM; IC50 (RH-1): > 1280 nM; IC50 (NCI-H1355): > 1280 nM; IC50 (NCI-H69): > 1280 nM; IC50 (JAR): > 1280 nM; IC50 (AM-38): > 1280 nM; IC50 (NB69): > 1280 nM; IC50 (NOMO-1): > 1280 nM; IC50 (8-MG-BA): > 1280 nM; IC50 (A3-KAW): > 1280 nM; IC50 (D283 Med): > 1280 nM; IC50 (NB13): > 1280 nM; IC50 (BT-474): > 1280 nM; IC50 (SK-N-DZ): > 1280 nM; IC50 (TE-8): > 1280 nM; IC50 (SHP77): > 1280 nM; IC50 (D-247MG): > 1280 nM; IC50 (LS-1034): > 1280 nM; IC50 (SK-MEL-1): > 1280 nM; IC50 (MV4-11): > 1280 nM; IC50 (JVM-3): > 1280 nM; IC50 (SW982): > 1280 nM; IC50 (RPMI-8866): > 1280 nM; IC50 (NTERA-2-cl-D1): > 1280 nM; IC50 (TE-9): > 1280 nM; IC50 (NCI-H1648): > 1280 nM; IC50 (A388): > 1280 nM; IC50 (HEL): > 1280 nM; IC50 (ES1): > 1280 nM; IC50 (SW 962): > 1280 nM; IC50 (HOP-62): > 1280 nM; IC50 (OCUB-M): > 1280 nM; IC50 (NMC-G1): > 1280 nM; IC50 (MZ1-PC): > 1280 nM; IC50 (EOL1): > 1280 nM; IC50 (LB2518-MEL): > 1280 nM

Q: How did the IC50 (TGW) turn out when C/C(=C\c1csc(C)n1)[C@@H]1C[C@@H]2O[C@]2(C)CCC[C@H](C)[C@H](O)[C@@H](C)C(=O)C(C)(C)[C@@H](O)CC(=O)O1 [PATUPILONE] was run?
A: Its IC50 is 13.5 nM.

Q: What about the IC50 (SK-LMS-1) of the same compound?
A: Its IC50 is 0.646 nM.

Q: What about the IC50 (LU-139) of the same compound?
A: The IC50 was greater than 32 nM.

Q: What about the IC50 (KGN) of the same compound?
A: Its IC50 is 0.617 nM.

Q: What about the IC50 (CCRF-CEM) of the same compound?
A: Its IC50 is 2.94 nM.

Q: What about the IC50 (RPMI-8226) of the same compound?
A: Its IC50 is 6.71 nM.

Q: And the IC50 (SK-N-FI)?
A: Its IC50 is greater than 32 nM.

Q: What about the IC50 (BE-13) of the same compound?
A: The IC50 was 7.3 nM.

Q: What about the IC50 (MS-1) of the same compound?
A: Its IC50 is 10.2 nM.

Q: And the IC50 (NEC8)?
A: The IC50 was 3.53 nM.

Q: What about the IC50 (COLO-320-HSR) of the same compound?
A: Its IC50 is 5.21 nM.

Q: What about the IC50 (SF-126) of the same compound?
A: The IC50 was 3.47 nM.

Q: And the IC50 (HCE-4)?
A: Its IC50 is 1.3 nM.

Q: And the IC50 (SNU-C2B)?
A: Its IC50 is 4.3 nM.

Q: What about the IC50 (DSH1) of the same compound?
A: Its IC50 is greater than 32 nM.

Q: What about the IC50 (RH-1) of the same compound?
A: The IC50 was 0.997 nM.

Q: And the IC50 (NCI-H1355)?
A: The IC50 was 0.915 nM.

Q: And the IC50 (NCI-H1299)?
A: Its IC50 is 0.88 nM.

Q: What about the IC50 (NCI-H69) of the same compound?
A: The IC50 was 14.8 nM.

Q: And the IC50 (JAR)?
A: The IC50 was greater than 32 nM.

Q: What about the IC50 (AM-38) of the same compound?
A: The IC50 was 7.56 nM.

Q: And the IC50 (NB69)?
A: Its IC50 is 8.07 nM.

Q: What about the IC50 (NOMO-1) of the same compound?
A: The IC50 was 8.55 nM.

Q: What about the IC50 (8-MG-BA) of the same compound?
A: The IC50 was 4.78 nM.

Q: And the IC50 (A3-KAW)?
A: The IC50 was 6.06 nM.

Q: And the IC50 (D283 Med)?
A: Its IC50 is greater than 32 nM.

Q: What about the IC50 (NB13) of the same compound?
A: Its IC50 is 0.447 nM.

Q: What about the IC50 (BT-474) of the same compound?
A: Its IC50 is 13.2 nM.

Q: What about the IC50 (SK-N-DZ) of the same compound?
A: Its IC50 is 7.59 nM.

Q: And the IC50 (TE-8)?
A: The IC50 was 0.111 nM.

Q: What about the IC50 (SHP77) of the same compound?
A: Its IC50 is 4.92 nM.

Q: And the IC50 (LS-1034)?
A: Its IC50 is 0.912 nM.

Q: What about the IC50 (SK-MEL-1) of the same compound?
A: Its IC50 is greater than 32 nM.

Q: And the IC50 (MV4-11)?
A: Its IC50 is 1.7 nM.

Q: What about the IC50 (JVM-3) of the same compound?
A: Its IC50 is greater than 32 nM.

Q: What about the IC50 (SW982) of the same compound?
A: Its IC50 is 0.999 nM.

Q: And the IC50 (RPMI-8866)?
A: The IC50 was 19.8 nM.

Q: And the IC50 (NTERA-2-cl-D1)?
A: The IC50 was 0.718 nM.

Q: And the IC50 (TE-9)?
A: Its IC50 is 1.57 nM.

Q: And the IC50 (NCI-H1648)?
A: The IC50 was 0.982 nM.

Q: And the IC50 (A388)?
A: Its IC50 is 0.94 nM.

Q: What about the IC50 (HEL) of the same compound?
A: Its IC50 is 4.14 nM.

Q: And the IC50 (ES1)?
A: The IC50 was 0.221 nM.

Q: What about the IC50 (SW 962) of the same compound?
A: The IC50 was 1.04 nM.

Q: What about the IC50 (HOP-62) of the same compound?
A: Its IC50 is 1.04 nM.

Q: What about the IC50 (OCUB-M) of the same compound?
A: The IC50 was 1.03 nM.

Q: What about the IC50 (NMC-G1) of the same compound?
A: Its IC50 is 1.75 nM.

Q: What about the IC50 (MZ1-PC) of the same compound?
A: Its IC50 is 0.607 nM.

Q: What about the IC50 (EOL1) of the same compound?
A: The IC50 was 12.9 nM.

Q: What about the IC50 (LB2518-MEL) of the same compound?
A: Its IC50 is 17.6 nM.
